From PMC3199943, “Screening the MayBridge Rule of 3 Fragment Library for Compounds That Interact with the Trypanosoma brucei myo-Inositol-3-Phosphate Synthase and/or Show Trypanocidal Activity” (Molecular Biology International, 2011)

tested on: HeLa cells; assay: cells; conditions: Homo sapiens, HeLa, 65 h, read-out: HeLa Cells Alamar Blue
Procedure, shortened: (§1)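 Seed HeLa/A549 at 2 × 10^4 cells/well in DMEM/10% FCS/2 mM L-Gln; treat ~65 h; add Alamar Blue, 5 h more.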

SMILES | viability at 500 µM [%]
O=C(O)CSc1ccc(Cl)cc1 [compound 641, 2‐[(4‐chlorophenyl)thio]acetic acid] | 105 ± 3.7
O=C(O)c1ccc(-c2ccccc2)s1 [compound 649, 5‐phenylthiophene‐2‐carboxylic acid] | 122 ± 18.7
O=C(O)c1cccc(-c2ccsc2)c1 [compound 650, 3‐thien‐3‐ylbenzoic acid] | 114 ± 15.9
NC(=O)c1ccccc1N1CCCCC1 [compound 651, 2‐piperidinobenzamide] | 82.4 ± 5.4
CNCc1cccc(-c2nccs2)c1 [compound 653, N‐methyl‐3‐(1,3‐thiazol‐2‐yl)benzylamine] | 93.3 ± 2.7
CNCc1ccc(-c2nccs2)cc1 [compound 654, N‐methyl‐4‐(1,3‐thiazol‐2‐yl)benzylamine] | 66.2 ± 16.9
NCc1cccc(CN2CCCCC2)c1 [compound 655, 3‐piperidin‐1‐ylmethyl benzylamine] | 73.7 ± 15.9
CNCc1cccc(N2CCCCC2)c1 [compound 656, N‐methyl‐N‐(3‐piperidin‐1‐ylbenzyl)amine] | 27.4 ± 13.3
CNCc1ccc(N2CCCCC2)cc1 [compound 657, N‐methyl‐N‐(4‐piperidin‐1‐ylbenzyl)amine] | 40.9 ± 12
O=C(O)Cc1ccc(Cl)c(Cl)c1 [compound 659, 2‐(3,4‐dichlorophenyl)acetic acid] | 74 ± 17.1
O=C(O)c1ccc(CN2CCCC2)cc1 [compound 665, 4‐(pyrrolidin‐1‐ylmethyl)benzoic acid] | 90.3 ± 6.3
OCc1ccc(CN2CCCCC2)cc1 [compound 669, [4‐(piperidin‐1‐ylmethyl)phenyl]methanol] | 93.2 ± 12.6

same assay, conditions: Supplementary Table 1; compound 0.5 mM; percentage of controls; mean ± SD (n=3) or SE (n=2)

SMILES | HeLa Cells Alamar Blue
c1ccc(-c2cn3c(n2)SCC3)cc1 [compound 639, 6‐phenyl‐2,3‐dihydroimidazo[2,1‐b][1,3]thiazole] | 61 ± 9.8 percentage of controls
Cc1oc(-c2ccccc2)nc1CCO [compound 643, 2‐(5‐methyl‐2‐phenyl‐1,3‐oxazol‐4‐yl)ethan‐1‐ol] | 45.5 ± 7.7 percentage of controls
CC(=O)Nc1ccc2c(c1)CCCC2=O [compound 644, N1‐(5‐oxo‐5,6,7,8‐tetrahydronaphthalen‐2‐yl)acetamide] | 99.2 ± 7.5 percentage of controls
NCc1ccc(CN2CCCCC2)cc1 [compound 658, [4‐(piperidinomethyl)phenyl]methylamine] | 22.8 ± 5.5 percentage of controls
COc1cc2c(cc1OC)C(C)=NCC2 [compound 664, 6,7‐dimethoxy‐1‐methyl‐3,4‐dihydroisoquinoline] | 75.4 ± 2.2 percentage of controls
CNCc1ccnc(N2CCCCC2)c1 [compound 671, N‐methyl‐N‐[(2‐piperidin‐1‐ylpyridin‐4‐yl)methyl]amine] | 54.8 ± 9.2 percentage of controls
CCOC(=O)c1sc(Cl)nc1C [compound 672, ethyl 2‐chloro‐4‐methyl‐1,3‐thiazole‐5‐carboxylate] | 89.6 ± 12.5 percentage of controls

tested on: A549 cells; assay: Cytotoxicity against A549 cells, Alamar Blue; format: cell-based; conditions: Homo sapiens, A549, 65 h; Supplementary Table 1; compound 0.5 mM; percentage of controls (n=1)
Procedure, shortened: as §1

SMILES | viability at 500 µM [%]
O=C(O)CSc1ccc(Cl)cc1 [compound 641, 2‐[(4‐chlorophenyl)thio]acetic acid] | 119
O=C(O)c1ccc(-c2ccccc2)s1 [compound 649, 5‐phenylthiophene‐2‐carboxylic acid] | 141
O=C(O)c1cccc(-c2ccsc2)c1 [compound 650, 3‐thien‐3‐ylbenzoic acid] | 165
NC(=O)c1ccccc1N1CCCCC1 [compound 651, 2‐piperidinobenzamide] | 93.1
CNCc1cccc(-c2nccs2)c1 [compound 653, N‐methyl‐3‐(1,3‐thiazol‐2‐yl)benzylamine] | 99.6
CNCc1ccc(-c2nccs2)cc1 [compound 654, N‐methyl‐4‐(1,3‐thiazol‐2‐yl)benzylamine] | 114
NCc1cccc(CN2CCCCC2)c1 [compound 655, 3‐piperidin‐1‐ylmethyl benzylamine] | 126
CNCc1cccc(N2CCCCC2)c1 [compound 656, N‐methyl‐N‐(3‐piperidin‐1‐ylbenzyl)amine] | 104
CNCc1ccc(N2CCCCC2)cc1 [compound 657, N‐methyl‐N‐(4‐piperidin‐1‐ylbenzyl)amine] | 77.4
O=C(O)Cc1ccc(Cl)c(Cl)c1 [compound 659, 2‐(3,4‐dichlorophenyl)acetic acid] | 106
O=C(O)c1ccc(CN2CCCC2)cc1 [compound 665, 4‐(pyrrolidin‐1‐ylmethyl)benzoic acid] | 104
OCc1ccc(CN2CCCCC2)cc1 [compound 669, [4‐(piperidin‐1‐ylmethyl)phenyl]methanol] | 121

same assay, conditions: Supplementary Table 1; compound 0.5 mM; percentage of controls (n=1)

SMILES | A549 Cells Alamar Blue
c1ccc(-c2cn3c(n2)SCC3)cc1 [compound 639, 6‐phenyl‐2,3‐dihydroimidazo[2,1‐b][1,3]thiazole] | 109.1 percentage of controls
Cc1oc(-c2ccccc2)nc1CCO [compound 643, 2‐(5‐methyl‐2‐phenyl‐1,3‐oxazol‐4‐yl)ethan‐1‐ol] | 104.4 percentage of controls
CC(=O)Nc1ccc2c(c1)CCCC2=O [compound 644, N1‐(5‐oxo‐5,6,7,8‐tetrahydronaphthalen‐2‐yl)acetamide] | 93.5 percentage of controls
NCc1ccc(CN2CCCCC2)cc1 [compound 658, [4‐(piperidinomethyl)phenyl]methylamine] | 123.5 percentage of controls
COc1cc2c(cc1OC)C(C)=NCC2 [compound 664, 6,7‐dimethoxy‐1‐methyl‐3,4‐dihydroisoquinoline] | 77.7 percentage of controls
CNCc1ccnc(N2CCCCC2)c1 [compound 671, N‐methyl‐N‐[(2‐piperidin‐1‐ylpyridin‐4‐yl)methyl]amine] | 82.7 percentage of controls
CCOC(=O)c1sc(Cl)nc1C [compound 672, ethyl 2‐chloro‐4‐methyl‐1,3‐thiazole‐5‐carboxylate] | 60.5 percentage of controls
